Measured values taken from paper PMC4406087, “Remaining challenges in cellular flavin cofactor homeostasis and flavoprotein biogenesis” (Frontiers in Chemistry, 2015).

What was measured:
6His-hFADS2 [1] = target: T1, 6His-hFADS2 (Homo sapiens, UniProt Q8NFF5); assay: spectrofluorimetric FAD synthesis assay, Dixon plot; assay type: biochemical; conditions: 50 mM Tris-HCl pH 7.5, 5 mM MgCl2, 37°C; product inhibition: competitive vs FMN, non-competitive vs ATP
T1 construct: gene FLAD1; recombinant 6His-tagged cytosolic isoform 2, purified

6His-hFADS2 [2] = target: T1, 6His-hFADS2; assay: flavin fluorescence of protein band on SDS-PAGE under UV; assay type: biochemical; conditions: tightly but not covalently bound, 1 mol FAD per monomer; fluorescence lost on transfer to apo-Me2GlyDH
6His-apo-Me2GlyDH = target: T2, 6His-apo-Me2GlyDH (Rattus norvegicus, UniProt Q63342); assay: as above; assay type: binding; conditions: covalent; 20 μM FAD, 50 mM Tris-HCl pH 7.5, 5 mM MgCl2, 5 mM ATP, 0.5% Triton X-100, 37°C; stimulated by rat liver mitochondrial matrix
T2 construct: gene Dmgdh; 6His-tagged, E. coli, purified apo-form
T2 sequence (Q63342 44-857): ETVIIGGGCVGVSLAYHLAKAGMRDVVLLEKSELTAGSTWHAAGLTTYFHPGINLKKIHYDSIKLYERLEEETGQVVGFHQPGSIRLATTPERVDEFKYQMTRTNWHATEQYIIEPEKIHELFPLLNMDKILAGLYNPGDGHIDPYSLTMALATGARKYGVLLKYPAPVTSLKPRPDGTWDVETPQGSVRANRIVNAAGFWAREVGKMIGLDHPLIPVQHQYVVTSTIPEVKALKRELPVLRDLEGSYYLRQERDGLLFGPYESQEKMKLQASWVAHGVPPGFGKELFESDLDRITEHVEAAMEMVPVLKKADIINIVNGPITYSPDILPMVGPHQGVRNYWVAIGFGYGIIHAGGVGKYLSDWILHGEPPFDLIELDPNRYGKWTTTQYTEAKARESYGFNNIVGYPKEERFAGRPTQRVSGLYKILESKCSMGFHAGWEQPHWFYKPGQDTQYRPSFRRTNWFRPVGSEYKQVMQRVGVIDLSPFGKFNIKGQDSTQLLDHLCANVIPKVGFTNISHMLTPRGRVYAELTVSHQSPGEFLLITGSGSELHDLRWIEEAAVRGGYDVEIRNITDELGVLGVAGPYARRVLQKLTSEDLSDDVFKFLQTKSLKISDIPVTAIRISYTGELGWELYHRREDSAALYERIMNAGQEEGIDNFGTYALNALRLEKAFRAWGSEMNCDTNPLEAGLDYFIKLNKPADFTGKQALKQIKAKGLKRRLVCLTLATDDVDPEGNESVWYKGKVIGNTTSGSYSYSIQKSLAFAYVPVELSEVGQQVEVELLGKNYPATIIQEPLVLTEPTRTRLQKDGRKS

T1 sequence (Q8NFF5 98-587 limits assumed): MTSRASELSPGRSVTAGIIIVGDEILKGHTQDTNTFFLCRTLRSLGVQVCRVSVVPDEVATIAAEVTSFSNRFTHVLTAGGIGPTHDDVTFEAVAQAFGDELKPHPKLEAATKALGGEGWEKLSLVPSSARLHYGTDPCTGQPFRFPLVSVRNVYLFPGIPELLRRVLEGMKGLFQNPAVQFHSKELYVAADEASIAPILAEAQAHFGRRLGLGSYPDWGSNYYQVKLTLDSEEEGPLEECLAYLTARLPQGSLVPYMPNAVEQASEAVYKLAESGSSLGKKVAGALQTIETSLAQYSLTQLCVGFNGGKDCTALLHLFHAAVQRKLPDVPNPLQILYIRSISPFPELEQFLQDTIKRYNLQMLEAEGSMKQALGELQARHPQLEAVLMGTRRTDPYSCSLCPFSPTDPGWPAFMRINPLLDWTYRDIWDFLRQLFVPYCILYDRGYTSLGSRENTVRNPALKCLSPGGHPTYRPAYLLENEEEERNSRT

Compound | spectrofluorimetric FAD synthesis assay, Dixon plot (6His-hFADS2 [1]) | flavin fluorescence of protein band on SDS-PAGE under UV (6His-hFADS2 [2]) | flavin fluorescence of protein band on SDS-PAGE under UV (6His-apo-Me2GlyDH)
O=P(O)(O)OP(=O)(O)O [PPi] | the inhibition by PPi against FMN is consistent with competitive inhibition |  | 
Cc1cc2nc3c(=O)[nH]c(=O)nc-3n(C[C@H](O)[C@H](O)[C@H](O)COP(=O)(O)OP(=O)(O)OC[C@H]3O[C@@H](n4cnc5c(N)ncnc54)[C@H](O)[C@@H]3O)c2cc1C [FAD] |  | hFADS loses its fluorescence upon incubation with apo-Me2GlyDH | mitochondrial matrix is able to stimulate apo-Me2GlyDH flavinylation
